Source: patent publication US8299111B2, “Compounds which modulate the CB2 receptor” (Boehringer Ingelheim International GmbH, priority 2006, dated 2012)

target: T1, human CB2R (Homo sapiens, UniProt P34972); assay: CB2R mediated modulation of cAMP synthesis; assay type: cell-based; conditions: found through the use of the above described assays (binding and cAMP); CHO cells expressing human CB2R, forskolin-stimulated cAMP
T1 construct: host or cells: CHO cells
Method in brief: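 EC50 values reflect inhibition of cAMP made in response to 10 uM forskolin (with 1 mM IBMX, 0.25% BSA) over 30 min at 37 °C in human CB2R-expressing CHO cells. The window runs from forskolin alone to 1 uM CP55940; curves fitted with a four-parameter logistic model.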

T1 sequence (P34972 whole entry): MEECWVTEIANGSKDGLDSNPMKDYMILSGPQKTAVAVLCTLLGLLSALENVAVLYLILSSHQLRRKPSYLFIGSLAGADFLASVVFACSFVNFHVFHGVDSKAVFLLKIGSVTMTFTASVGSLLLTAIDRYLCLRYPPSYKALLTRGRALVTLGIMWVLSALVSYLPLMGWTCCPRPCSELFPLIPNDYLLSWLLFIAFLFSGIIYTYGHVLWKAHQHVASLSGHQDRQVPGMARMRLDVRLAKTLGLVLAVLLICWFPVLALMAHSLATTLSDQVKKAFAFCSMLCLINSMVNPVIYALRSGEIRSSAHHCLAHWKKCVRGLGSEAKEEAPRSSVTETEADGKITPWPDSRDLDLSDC

| Compound | agonistic activity |
| --- | --- |
| CC(C)(C(=O)Nc1nc(-c2ccccc2)cs1)S(=O)(=O)c1ccc(Cl)cc1F [2-[(4-chloro-2-fluorophenyl)sulfonyl]-2-methyl-N-(4-phenyl-1,3-thiazol-2-yl)propanamide] | agonistic activity |
| Cc1sc(NC(=O)C(C)(C)S(=O)(=O)c2ccc(Cl)cc2F)nc1-c1ccccc1 [2-[(4-chloro-2-fluorophenyl)sulfonyl]-2-methyl-N-(5-methyl-4-phenyl-1,3-thiazol-2-yl)propanamide] | agonistic activity |
| Cc1ccc(NC(=O)C(C)(C)S(=O)(=O)c2ccc(Cl)cc2F)nc1 [2-[(4-chloro-2-fluorophenyl)sulfonyl]-2-methyl-N-(5-methylpyridin-2-yl)propanamide] | agonistic activity |
| CC(C)(C(=O)Nc1nsc(-c2ccccc2)n1)S(=O)(=O)c1ccc(Cl)cc1F [2-[(4-chloro-2-fluorophenyl)sulfonyl]-2-methyl-N-(5-phenyl-1,2,4-thiadiazol-3-yl)propanamide] | agonistic activity |
| CC(C)(C(=O)Nc1cccc(C(F)(F)F)c1)S(=O)(=O)c1ccc(Cl)cc1F [2-[(4-chloro-2-fluorophenyl)sulfonyl]-2-methyl-N-[3-(trifluoromethyl)phenyl]propanamide] | agonistic activity |
| CC(C)(C(=O)Nc1nc(C(F)(F)F)cs1)S(=O)(=O)c1ccc(Cl)cc1F [2-[(4-chloro-2-fluorophenyl)sulfonyl]-2-methyl-N-[4-(trifluoromethyl)-1,3-thiazol-2-yl]propanamide] | agonistic activity |
| CC(C)(C(=O)Nc1ccc(C(F)(F)F)cc1)S(=O)(=O)c1ccc(Cl)cc1F [2-[(4-chloro-2-fluorophenyl)sulfonyl]-2-methyl-N-[4-(trifluoromethyl)phenyl]propanamide] | agonistic activity |
| CC(C)(C(=O)Nc1ccc2ccccc2n1)S(=O)(=O)c1ccc(Cl)cc1F [2-[(4-chloro-2-fluorophenyl)sulfonyl]-2-methyl-N-quinolin-2-ylpropanamide] | agonistic activity |
| CC(C)(C(=O)Nc1cnc2ccccc2c1)S(=O)(=O)c1ccc(Cl)cc1F [2-[(4-chloro-2-fluorophenyl)sulfonyl]-2-methyl-N-quinolin-3-ylpropanamide] | agonistic activity |
| CC(C)(C(=O)Nc1nc(C2CCCCC2)cs1)S(=O)(=O)c1ccc(Cl)cc1F [2-[(4-chloro-2-fluorophenyl)sulfonyl]-N-(4-cyclohexyl-1,3-thiazol-2-yl)-2-methylpropanamide] | agonistic activity |
| CC(C)(C(=O)Nc1nc(C2CC2)cs1)S(=O)(=O)c1ccc(Cl)cc1F [2-[(4-chloro-2-fluorophenyl)sulfonyl]-N-(4-cyclopropyl-1,3-thiazol-2-yl)-2-methylpropanamide] | agonistic activity |
| CCc1ccnc(NC(=O)C(C)(C)S(=O)(=O)c2ccc(Cl)cc2F)c1 [2-[(4-chloro-2-fluorophenyl)sulfonyl]-N-(4-ethylpyridin-2-yl)-2-methylpropanamide] | agonistic activity |
| CC(C)(C)Cc1cc(NC(=O)C(C)(C)S(=O)(=O)c2ccc(Cl)cc2F)on1 [2-[(4-chloro-2-fluorophenyl)sulfonyl]-N-[3-(2,2-dimethylpropyl)isoxazol-5-yl]-2-methylpropanamide] | agonistic activity |
| CC(C)(C(=O)Nc1nc(-c2ccc(Cl)cc2)cs1)S(=O)(=O)c1ccc(Cl)cc1F [2-[(4-chloro-2-fluorophenyl)sulfonyl]-N-[4-(4-chlorophenyl)-1,3-thiazol-2-yl]-2-methylpropanamide] | agonistic activity |
| CC(C)(C(=O)Nc1cc2ccccc2cn1)S(=O)(=O)c1ccc(Cl)cc1F [2-[(4-chloro-2-fluorophenyl)sulfonyl]-N-isoquinolin-3-yl-2-methylpropanamide] | agonistic activity |
| Cc1ccnc(NC(=O)C(C)(C)S(=O)(=O)c2ccc(Cl)cc2)n1 [2-[(4-chlorophenyl)sulfonyl]-2-methyl-N-(4-methylpyrimidin-2-yl)propanamide] | agonistic activity |
| CC(C)(C(=O)Nc1nc2c(F)cccc2s1)S(=O)(=O)c1ccc(Cl)cc1 [2-[(4-chlorophenyl)sulfonyl]-N-(4-fluoro-1,3-benzothiazol-2-yl)-2-methylpropanamide] | agonistic activity |
| CC(C)(C(=O)Nc1nc2ccc(F)cc2s1)S(=O)(=O)c1ccc(Cl)cc1 [2-[(4-chlorophenyl)sulfonyl]-N-(6-fluoro-1,3-benzothiazol-2-yl)-2-methylpropanamide] | agonistic activity |
| CC(C)(C(=O)Nc1ccc(C(F)(F)F)cc1F)S(=O)(=O)c1ccc(Cl)cc1 [2-[(4-chlorophenyl)sulfonyl]-N-[2-fluoro-4-(trifluoromethyl)phenyl]-2-methylpropanamide] | agonistic activity |
| CC(C)(C(=O)Nc1ccc(C(F)(F)F)c(F)c1)S(=O)(=O)c1ccc(Cl)cc1 [2-[(4-chlorophenyl)sulfonyl]-N-[3-fluoro-4-(trifluoromethyl)phenyl]-2-methylpropanamide] | agonistic activity |
| CC(C)(C(=O)Nc1nc(-c2ccc(F)cc2)cs1)S(=O)(=O)c1ccc(Cl)cc1 [2-[(4-chlorophenyl)sulfonyl]-N-[4-(4-fluorophenyl)-1,3-thiazol-2-yl]-2-methylpropanamide] | agonistic activity |
| Cc1sc(NC(=O)C(C)(C)S(=O)(=O)c2ccc(Cl)cc2)nc1-c1ccc(F)cc1 [2-[(4-chlorophenyl)sulfonyl]-N-[4-(4-fluorophenyl)-5-methyl-1,3-thiazol-2-yl]-2-methylpropanamide] | agonistic activity |
| CC(C)(C(=O)Nc1ccc(F)c(C(F)(F)F)c1)S(=O)(=O)c1ccc(Cl)cc1 [2-[(4-chlorophenyl)sulfonyl]-N-[4-fluoro-3-(trifluoromethyl)phenyl]-2-methylpropanamide] | agonistic activity |
| CCCc1cc(NC(=O)C(C)(C)S(=O)(=O)c2ccc(OC)cc2)on1 [2-[(4-methoxyphenyl)sulfonyl]-2-methyl-N-(3-propylisoxazol-5-yl)propanamide] | agonistic activity |
| COc1ccc(S(=O)(=O)C(C)(C)C(=O)Nc2cccc(C(F)(F)F)n2)cc1 [2-[(4-methoxyphenyl)sulfonyl]-2-methyl-N-[6-(trifluoromethyl)pyridin-2-yl]propanamide] | agonistic activity |
| CCCc1cc(NC(=O)C(C)(C)S(=O)(=O)c2ccc(S(C)(=O)=O)cc2)on1 [2-methyl-2-{[4-(methylsulfonyl)phenyl]sulfonyl}-N-(3-propylisoxazol-5-yl)propanamide] | agonistic activity |
| CC(C)(C(=O)Nc1nc2c(s1)CCCC2)S(=O)(=O)c1ccc(S(C)(=O)=O)cc1 [2-methyl-2-{[4-(methylsulfonyl)phenyl]sulfonyl}-N-(4,5,6,7-tetrahydro-1,3-benzothiazol-2-yl)propanamide] | agonistic activity |
| CC(C)(C(=O)Nc1cccc(C(F)(F)F)c1)S(=O)(=O)c1ccc(S(C)(=O)=O)cc1 [2-methyl-2-{[4-(methylsulfonyl)phenyl]sulfonyl}-N-[3-(trifluoromethyl)phenyl]propanamide] | agonistic activity |
